Reference: patent US20220227700A1, “HDAC3 CATALYTIC INHIBITOR DEVELOPMENT AND USES THEREOF” (DANA-FARBER CANCER INSTITUTE, INC., priority 2019, published 2022)
Read-outs that look alike come from different tables or passages of the source.

What was measured:
Type in all cases: biochemical
HDAC2 = target: T1, HDAC2 (Homo sapiens, UniProt Q92769); assay: HDAC enzyme assay, HDAC2 (fluorogenic, 384-well); details: read-out: IC50 HDAC2 (Tables 4-23, isoform selectivity panel)
T1 construct: recombinant, full-length HDAC protein (HDAC1 100 pg/ul, HDAC2 200 pg/ul); purchased BPS Biosciences, San Diego, Calif., USA
T1 sequence (Q92769 whole entry, canonical isoform): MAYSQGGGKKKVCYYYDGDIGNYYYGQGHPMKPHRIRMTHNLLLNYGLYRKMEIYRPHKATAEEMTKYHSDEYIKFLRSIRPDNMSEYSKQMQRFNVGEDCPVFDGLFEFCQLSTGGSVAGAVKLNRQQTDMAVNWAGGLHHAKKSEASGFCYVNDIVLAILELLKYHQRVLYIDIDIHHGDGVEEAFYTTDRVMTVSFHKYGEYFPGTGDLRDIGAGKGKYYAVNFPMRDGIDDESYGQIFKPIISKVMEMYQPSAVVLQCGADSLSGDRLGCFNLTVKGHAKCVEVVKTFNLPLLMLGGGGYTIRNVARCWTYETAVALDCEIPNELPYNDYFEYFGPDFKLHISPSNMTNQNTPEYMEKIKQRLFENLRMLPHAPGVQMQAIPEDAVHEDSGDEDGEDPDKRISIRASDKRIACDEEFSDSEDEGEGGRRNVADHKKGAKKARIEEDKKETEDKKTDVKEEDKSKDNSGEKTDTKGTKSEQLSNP
Experimental: (§1) The inhibitory effect of compounds on HDAC1-HDAC9 function was determined in vitro using an optimized homogenous assay performed in a 384-well plate format. […] Reactions were performed in assay buffer (50 mM HEPES, 100 mM KCl, 0.001% (v/v) Tween 20, 0.05% (w/v) bovine serum albumin, 200 μM TCEP, pH 7.4) and followed for fluorogenic release of 7-amino-4-methylcoumarin from substrate upon deacetylase and trypsin enzymatic activity. Trypsin was present at a final concentration of 50 nM (Worthington Biochemical Corporation). Fluorescence measurements were obtained approximately every 5 min using a multilabel plate reader and plate stacker (Envision, Perkin-Elmer). Data were analyzed on a plate-by-plate basis for the linear range of fluorescence overtime. The first derivative of data obtained from the plate capture corresponding to the mid-linear range was imported into analytical software (Spotfire DecisionSite and GraphPad Prism). Replicate experimental data from incubations with inhibitor were normalized to DMSO controls. IC50 is determined by logistic regression with unconstrained maximum and minimum values.

HDAC1 = target: T2, HDAC1 (Homo sapiens, UniProt Q13547); assay: HDAC enzyme assay, HDAC1 (fluorogenic, 384-well); details: read-out: IC50 HDAC1 (Tables 4-23, isoform selectivity panel)
T2 construct: recombinant, full-length HDAC protein (HDAC1 100 pg/ul); purchased BPS Biosciences, San Diego, Calif., USA
T2 sequence (Q13547 whole entry, canonical isoform): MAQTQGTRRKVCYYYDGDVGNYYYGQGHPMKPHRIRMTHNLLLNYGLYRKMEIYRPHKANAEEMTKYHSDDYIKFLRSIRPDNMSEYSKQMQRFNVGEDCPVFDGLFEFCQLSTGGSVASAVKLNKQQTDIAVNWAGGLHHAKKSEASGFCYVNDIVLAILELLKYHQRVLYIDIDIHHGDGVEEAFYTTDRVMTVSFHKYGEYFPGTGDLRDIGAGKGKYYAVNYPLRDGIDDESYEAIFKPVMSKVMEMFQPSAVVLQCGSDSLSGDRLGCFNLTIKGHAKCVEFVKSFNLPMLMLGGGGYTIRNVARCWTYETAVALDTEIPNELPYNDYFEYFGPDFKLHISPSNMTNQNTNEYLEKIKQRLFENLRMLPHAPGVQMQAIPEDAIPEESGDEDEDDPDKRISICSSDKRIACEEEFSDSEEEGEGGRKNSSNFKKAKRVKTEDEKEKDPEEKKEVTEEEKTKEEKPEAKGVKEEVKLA
Experimental: as §1

HDAC3 = target: T3, HDAC3 (Homo sapiens, UniProt O15379); assay: HDAC enzyme assay, HDAC3 (fluorogenic, 384-well); details: for IC50: recombinant full-length HDAC3, 3 hours incubation, substrate MAZ1600 at Km
T3 construct: recombinant, full-length HDAC protein (HDAC1 100 pg/ul, HDAC2 200 pg/ul, HDAC3 100 pg/ul); purchased BPS Biosciences, San Diego, Calif., USA
T3 sequence (O15379 whole entry): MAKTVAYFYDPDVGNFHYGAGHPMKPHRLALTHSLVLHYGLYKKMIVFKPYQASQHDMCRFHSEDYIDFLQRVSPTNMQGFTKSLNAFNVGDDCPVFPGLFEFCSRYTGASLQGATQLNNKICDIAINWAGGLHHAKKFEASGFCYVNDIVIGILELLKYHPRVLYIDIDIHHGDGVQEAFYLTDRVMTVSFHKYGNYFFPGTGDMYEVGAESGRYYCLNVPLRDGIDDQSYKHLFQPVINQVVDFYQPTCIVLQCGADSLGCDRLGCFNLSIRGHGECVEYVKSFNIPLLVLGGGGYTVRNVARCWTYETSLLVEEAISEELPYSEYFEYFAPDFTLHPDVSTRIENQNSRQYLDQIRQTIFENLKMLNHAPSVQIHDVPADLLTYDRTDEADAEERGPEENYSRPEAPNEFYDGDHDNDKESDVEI
T3 sequence (Q9Y618 395-489 partner limits assumed): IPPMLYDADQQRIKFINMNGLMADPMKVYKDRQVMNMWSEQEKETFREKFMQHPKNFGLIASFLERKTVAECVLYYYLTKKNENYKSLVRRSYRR
Experimental: as §1

[1] = FIGS. 4A-4D, read-out: IC50 HDAC3 (Tables 4-23, isoform selectivity panel)
[2] = read-out: IC50 against HDAC3 (Table 3, data of FIG. 2)

Row | SMILES | IC50 (HDAC2) [nM] | IC50 (HDAC1) [nM] | IC50 (HDAC3; [1]) [nM] | IC50 (HDAC3; [2]) [nM] | Selectivity for HDAC3 over other HDAC isoforms (HDAC3; HDAC inhibition assays, FIGS. 1A, 1B, 2, 3)
1 | COc1cc(-c2ccccc2)ccc1NC(=O)c1ccc(C(=O)Nc2ccc(F)cc2N)cc1 (racemic) [DL-HDAC11] | 4690 | 36000 | 8810 | 7770 | –
2 | Nc1cc(F)ccc1NC(=O)c1ccc(C(=O)Nc2ccccc2)cc1 (racemic) [DL-HDAC12] | 360 | 600 | 270 | 270 | –
3 | CC(NC(=O)c1ccc(C(=O)Nc2ccc(F)cc2N)cc1)c1ccccc1[N+](=O)[O-] (racemic) [DL-HDAC8] | 660 | 1650 | 420 | 410 | –
4 | Nc1cc(F)ccc1NC(=O)c1ccc(C(=O)Nc2cccc3cnccc23)cc1 (racemic) [DL-HDAC9] | 930 | 1550 | 550 | 630 | –
5 | Nc1cc(F)ccc1NC(=O)c1ccc(C(=O)Nc2cccc3[nH]ccc23)cc1 (racemic) [DL-HDAC3] | 490 | 1050 | 230 | 230 | –
6 | Cc1cc(NC(=O)c2ccc(C(=O)Nc3ccc(F)cc3N)cc2)n[nH]1 (racemic) [DL-HDAC10] | 850 | 2070 | 450 | 450 | –
7 | Nc1cc(F)ccc1NC(=O)c1ccc(C(=O)Nc2ccc(N3CCOCC3)cc2)cc1 (racemic) [DL-HDAC5] | 440 | 810 | 280 | 260 | –
8 | Nc1cc(F)ccc1NC(=O)c1ccc(C(=O)Nc2ccc(Cl)c(C(F)(F)F)c2)cc1 (racemic) [DL-HDAC2] | – | – | 1330 | 1330 | –
9 | Nc1cc(F)ccc1NC(=O)c1ccc(C(=O)Nc2cccc3ncccc23)cc1 (racemic) [DL-HDAC1] | – | – | 11100 | 10500 | –
10 | Nc1cc(F)ccc1NC(=O)c1ccc(C(=O)Nc2cccc3sccc23)cc1 (racemic) [DL-HDAC4] | – | – | 260 | 270 | –

Second part, led by results:

Row | IC50 (HDAC2) [nM] | IC50 (HDAC1) [nM] | IC50 (HDAC3; [1]) [nM] | IC50 (HDAC3; [2]) [nM] | SMILES | Selectivity for HDAC3 over other HDAC isoforms (HDAC3; HDAC inhibition assays, FIGS. 1A, 1B, 2, 3)
11 | 220 | 1220 | 170 | 150 | CC(=O)c1ccc(NC(=O)c2ccc(C(=O)Nc3ccc(F)cc3N)cc2)cc1 (racemic) [DL-HDAC17] | –
12 | 610 | 2790 | 290 | 270 | Nc1cc(F)ccc1NC(=O)c1ccc(C(=O)NCCCn2ccnc2)cc1 (racemic) [DL-HDAC19] | –
13 | 1800 | 3920 | 730 | 710 | Nc1cc(F)ccc1NC(=O)c1ccc(C(=O)NCCCBr)cc1 (racemic) [DL-HDAC15] | –
14 | 880 | 3490 | 560 | 530 | Nc1cc(F)ccc1NC(=O)c1ccc(C(=O)NC2CCNCC2)cc1 (racemic) [DL-HDAC18] | –
15 | – | – | – | 390 | Nc1cc(F)ccc1NC(=O)c1ccc(C(=O)NCc2ccccn2)cc1 [LW3] | selectively inhibits HDAC3 over other HDAC isoforms
16 | 94 | 200 | 120 | 120 | Nc1cc(F)ccc1NC(=O)c1ccc(C(=O)NCc2ccc(Br)cc2)cc1 (racemic) [DL-HDAC13] | –
17 | 990 | 2620 | 420 | 390 | Nc1cc(F)ccc1NC(=O)c1ccc(C(=O)NCC(F)(F)F)cc1 (racemic) [DL-HDAC16] | –
18 | 590 | 1730 | 330 | 290 | Nc1cc(F)ccc1NC(=O)c1ccc(C(=O)NCCc2cccnc2)cc1 (racemic) [DL-HDAC20] | –
